What was measured:
GATA-luc = test: Luciferase reporter assay in HEK293 cells; format: cell-based; details: HEK293, treated 3 hours after transfection for 48 hours, vs DMSO (fucoxanthin 0.1, 1, 10 μM)
Source text: The plasmids pGL3-Cebpα promoter-luc and pGL3-Mitf1 promoter-luc were provided by Dr. Hua Huang (University of Colorado school, Denver, USA). The plasmid NF-κB-luc was purchased from Agilent Technologies (Santa Clara, Calif.). The GATA-responsive reporter vector was provided by Dr. Ishijima (Takasaki University of Health and welfare, Gunma, Japan). Three GATA motifs from mouse α-1 globulin gene (5′-TGATAA-3′) were tandemly inserted into Sma I site of pRBGP3. HDC promoter was provided by Dr. Ootsu (Tohoku University school of Medicine, Sendai, Japan) and cloned into Kpn I-Hind III site of pGL4.10 (Hdc promoter-luc). The reporter assay was performed according to the method described in Kanatani, N. et al. Briefly, HEK293 cells were transfected with each of the luciferase constructs (0.2 μg) or pRL-CMV (Promega, Madison, Wis.) (0.001 μg). At 3 hours after transfection, the cells were treated with fucoxanthin (0.1 μM, 1 μM or 10 μM) or DMSO for 48 hours and reporter assay was performed using Dual-Luciferase® Reporter Assay System (Promega). Luciferase activity was measured using luminometer model TD20/20n (Turner BioSystems, Sunnyvale, Calif.) and normalized to Renilla luciferase activity expressed by CMV promoter.
GATA-reporter assay was performed using HEK293 cells expressing GATA-luc prepared in Example 8, in the same manner as described in Example 8 except using various carotenoids (fucoxanthin, astaxanthin, lycopene, β-carotene or retinoic acid) in place of fucoxanthin.

NC/Nga mice [1] = test: Serum IgE content by ELISA in NC/Nga mice; format: in vivo; details: topical application for 5 weeks, PiCl-sensitized, vs Vaseline
Source text: (§1) NC/Nga mice (5 weeks old, female) were purchased from Japan SLC, Inc. […] On day 12, day 19, day 26 and day 33 after starting application of Vaseline or fucoxanthin, 0.8% picryl chloride (PiCl) was further applied to the back skin of the mice. The behaviors of the mice were observed by video monitoring. On day 34 after starting application of Vaseline or fucoxanthin, bromodeoxyuridine (BrdU, Nacalai Tesque) (0.[…] weight) was intraperitoneally administered to the mice. At 5 weeks after starting application of Vaseline or fucoxanthin, the time each mouse spent for scratching behavior in 10 minutes was measured by video monitoring. Then, the mice were sacrificed and the auricular lymph node, blood and skin were obtained. Serum IgE content was determined by enzyme-linked immunosorbent assay (ELISA) using Mouse IgE Assay Kit (Morinaga Institute of Biological Science, Inc.). […] BrdU uptake was determined by ELISA using Cell Proliferation ELISA, BrdU (Colorimetric) (Roche Diagnostics K.K.). […] Also, serum IgE levels and swelling of the auricular lymph nodes of the mice were determined in the same manner as described in Example 2.

NC/Nga mice [2] = test: Swelling (length) of the auricular lymph node in NC/Nga mice; format: in vivo; details: topical application for 5 weeks, PiCl-sensitized, vs Vaseline
Source text: as §1

NC/Nga mice [3] = test: Clinical symptoms of dermatitis in PiCl-sensitized NC/Nga mice; format: in vivo; details: topical application plus PiCl, at 5 weeks
Protocol: Next, we examined the effects of fucoxanthin and astaxanthin on clinical symptoms of dermatitis in NC/Nga mice. In the same manner as described in Example 2, fucoxanthin or astaxanthin and PiCl were applied to NC/Nga mice. […] In the same manner as described in Example 2, Vaseline, fucoxanthin or tacrolimus and PiCl were applied to NC/Nga mice. […] Also, serum IgE levels and swelling of the auricular lymph nodes of the mice were determined in the same manner as described in Example 2.

NC/Nga mice [4] = test: Transdermal water loss (TEWL) in the skin of NC/Nga mice; format: in vivo; details: topical application plus PiCl, at 5 weeks, vs Vaseline
Protocol: Transdermal water loss (TEWL) in the skin of the mice treated with fucoxanthin was also measured and compared with that in the skin of the mice treated with tacrolimus.

[5] = test system: bone marrow-derived mast cells (BMMCs); test: Granule formation in BMMCs, tryptase immunostaining; format: cell-based, mice; details: 10 μM, vs control-treated cells
Protocol: Mature mast cells were prepared in the same manner as described in Example 5. The BMMCs obtained were mounted on a glass slide and heat-fixed. The analysis of the preparation was performed according to the method described in Kosaka, T., Fukui, R., Matsui, M. et al. (2014) “RAGE, Receptor of Advanced Glycation Endoproducts, Negatively Regulates Chondrocytes Differentiation.” PLoS ONE 9(10): e108819. Briefly, the cells were reacted with a mouse anti-mast cell tryptase antibody (AB2378, Abcam, Tokyo, Japan) and then reacted with an FITC-conjugated anti-mouse IgG (Santa Cruz Biotechnology, Inc.) and 1 μg/mL DAPI (4′,6-diamino-2-phenylindole dihydrochloride). The fluorescent image was analyzed by EVOS® FL Cell Imaging System (Life Technologies Corp).
To confirm where the effect of fucoxanthin on granule formation in mast cells is specific rather than common to carotenoids, we compared granule formation between fucoxanthin-treated and astaxanthin-treated BMMCs by immunostaining of tryptase. The immunostaining assay was performed in the same manner as described in Example 6.

Structure (SMILES): CC1=C(/C=C/C(C)=C/C=C/C(C)=C/C=C/C=C(C)/C=C/C=C(C)/C=C/C2=C(C)CCCC2(C)C)C(C)(C)CCC1 [β-carotene]
- GATA-luc expression (GATA-luc): rather upregulated

Structure (SMILES): CC(C)=CCC/C(C)=C/C=C/C(C)=C/C=C/C(C)=C/C=C/C=C(C)/C=C/C=C(C)/C=C/C=C(\C)CCC=C(C)C [lycopene]
- GATA-luc expression (GATA-luc): not downregulated

Structure (SMILES): C=CC[C@@H]1/C=C(\C)C[C@H](C)C[C@H](OC)[C@H]2O[C@@](O)(C(=O)C(=O)N3CCCC[C@H]3C(=O)O[C@H](/C(C)=C/[C@@H]3CC[C@@H](O)[C@H](OC)C3)[C@H](C)[C@@H](O)CC1=O)[C@H](C)C[C@@H]2OC [tacrolimus, reference compound]
- serum IgE level (NC/Nga mice [1]): neither ear swelling (FIG. 9A) nor serum IgE level (FIG. 9B) were affected
- swelling of the auricular lymph node (ear swelling) (NC/Nga mice [2]): neither ear swelling (FIG. 9A) nor serum IgE level (FIG. 9B) were affected
- clinical symptoms of dermatitis (AD symptoms) (NC/Nga mice [3]): protected AD symptoms partially
- transdermal water loss (TEWL) (NC/Nga mice [4]): did not affect TEWL

Structure (SMILES): CC1=C(/C=C/C(C)=C/C=C/C(C)=C/C=C/C=C(C)/C=C/C=C(C)/C=C/C2=C(C)C(=O)[C@@H](O)CC2(C)C)C(C)(C)C[C@H](O)C1=O [astaxanthin, reference compound]
- granule formation (tryptase-positive cells / immunoreactivity against tryptase) [5]: not significantly reduced
- GATA-luc expression (GATA-luc): not downregulated

From US9566262B2, “Itch suppression by fucoxanthin” (THE RITSUMEIKAN TRUST, priority 2015, dated 2017)
